# Measured values reported in patent US10344025B2, “GLS1 inhibitors for treating disease” (Board of Regents, The University of Texas System, priority 2014, dated 2019).
# What was measured:
# A549 cells = assay: Proliferation Assay (A549 viability, Cell Titer Fluor, 72 hours); format: cell-based; details: Homo sapiens
# Method in brief: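 A549 cells seeded at 1000 cells/well, rested 24 h, then exposed to compound in 0.5% DMSO for 72 h at 37 °C. Viability read by Cell Titer Fluor fluorescence; IC50 from four-parameter logistic fit.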
# [1] = target: purified recombinant human GAC (GLS1) (Homo sapiens (Human), UniProt O94925); assay: GLS1 Enzymatic Activity Assay (dual-coupled enzymatic assay, resorufin/Amplex UltraRed readout); format: biochemical;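 note: glutamate from GAC coupled via glutamate oxidase and peroxidase to resorufin, read as fluorescence (ex 530, em 590 nm) kinetically or at 20 min, four-parameter logistic IC50 fit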
# Chain of purified recombinant human GAC (GLS1) (O94925 other isoform, or with tags, fused parts or gaps): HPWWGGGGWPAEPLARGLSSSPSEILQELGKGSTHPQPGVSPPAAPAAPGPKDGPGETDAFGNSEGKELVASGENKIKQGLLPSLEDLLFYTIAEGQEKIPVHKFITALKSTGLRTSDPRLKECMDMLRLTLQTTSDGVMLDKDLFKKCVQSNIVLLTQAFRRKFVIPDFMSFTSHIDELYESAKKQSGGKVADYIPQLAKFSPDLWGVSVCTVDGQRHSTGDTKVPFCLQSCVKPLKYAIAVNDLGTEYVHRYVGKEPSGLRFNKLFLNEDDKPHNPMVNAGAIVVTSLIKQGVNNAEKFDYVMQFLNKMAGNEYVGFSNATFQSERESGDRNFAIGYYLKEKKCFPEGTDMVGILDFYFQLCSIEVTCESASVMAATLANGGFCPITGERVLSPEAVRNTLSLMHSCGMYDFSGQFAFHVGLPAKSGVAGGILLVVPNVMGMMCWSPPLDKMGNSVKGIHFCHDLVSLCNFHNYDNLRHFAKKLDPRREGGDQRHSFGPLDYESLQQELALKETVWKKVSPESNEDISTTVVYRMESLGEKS
SMILES,"EC50 (A549 cells; A549, 72 h) [nM]",IC50 [1] [nM],EC50 (A549 cells) [nM]
"O=C(NCc1cc(C(F)(F)F)ccn1)c1cn(CC(F)CCc2nnc(C(=O)NCc3cc(C(F)(F)F)ccn3)s2)nn1 (centres unmarked) [Example 520, 5-{3-fluoro-4-[4-({[4-(trifluoromethyl)pyridin-2-yl]methyl}carbamoyl)-1H-1,2,3-triazol-1-yl]butyl}-N-{[4-(trifluoromethyl)pyridin-2-yl]methyl}-1,3,4-thiadiazole-2-carboxamide]",< 100,< 100,–
"O=C(Cc1cccc(OC(F)(F)F)c1)Nc1ccc(CCCCn2cc(C(=O)NCC3COC3)nn2)nn1 [Example 550, N-(oxetan-3-ylmethyl)-1-[4-(6-{2-[3-(trifluoromethoxy)phenyl]acetamido}pyridazin-3-yl)butyl]-1H-1,2,3-triazole-4-carboxamide]",100 to 500,< 100,–
"O=C(NCc1ccc(C(F)(F)F)nc1)c1cn(CCCCn2cc(C(=O)NCc3cncc(C(F)(F)F)c3)nn2)nn1 [Example 143, N-{[5-(trifluoromethyl)pyridin-3-yl]methyl}-1-{4-[4-({[6-(trifluoromethyl)pyridin-3-yl]methyl}carbamoyl)-1H-1,2,3-triazol-1-yl]butyl}-1H-1,2,3-triazole-4-carboxamide]",< 100,< 100,–
"O=C(NCc1cccc(OC(F)(F)F)c1)c1cn(CCC(F)Cn2cc(C(=O)NCc3cncc(C(F)(F)F)c3)nn2)nn1 (centres unmarked) [Example 477, 1-{2-fluoro-4-[4-({[3-(trifluoromethoxy)phenyl]methyl}carbamoyl)-1H-1,2,3-triazol-1-yl]butyl}-N-{[5-(trifluoromethyl)pyridin-3-yl]methyl}-1H-1,2,3-triazole-4-carboxamide]",< 100,< 100,–
"O=C(Cc1ccccn1)Nc1cn(CCCCn2cc(C(=O)NCc3cc(Cl)ccc3F)nn2)nn1 [Example 338, N-[(5-chloro-2-fluorophenyl)methyl]-1-(4-{4-[2-(pyridin-2-yl)acetamido]-1H-1,2,3-triazol-1-yl}butyl)-1H-1,2,3-triazole-4-carboxamide]",100 to 500,< 100,–
"CC(C)(NC(=O)c1cn(CCCCc2nnc(NC(=O)Cc3cccc(OC(F)(F)F)c3)s2)nn1)c1ccccc1 [Example 18, N-(2-phenylpropan-2-yl)-1-[4-(5-{2-[3-(trifluoromethoxy)phenyl]acetamido}-1,3,4-thiadiazol-2-yl)butyl]-1H-1,2,3-triazole-4-carboxamide]",100 to 500,100 to 500,–
"O=C(NCc1cc(C(F)(F)F)ccn1)c1cn(CC(F)CCc2nnc(C(=O)NCCC(F)(F)F)s2)nn1 (centres unmarked) [Example 511, 5-{3-fluoro-4-[4-({[4-(trifluoromethyl)pyridin-2-yl]methyl}carbamoyl)-1H-1,2,3-triazol-1-yl]butyl}-N-(3,3,3-trifluoropropyl)-1,3,4-thiadiazole-2-carboxamide]",500 to 5000,100 to 500,–
"O=C(Cc1ccccc1)Nc1nnc(CCCCCn2cc(C(=O)NCc3ccccc3)nn2)s1 [Example 4, N-Benzyl-1-(5-(5-(2-phenylacetamido)-1,3,4-thiadiazol-2-yl)pentyl)-1H-1,2,3-triazole-4-carboxamide]",100 to 500,100 to 500,–
"Cc1ccc(CC(=O)Nc2cn(CC(F)CCn3cc(C(=O)NCc4ccccn4)nn3)nn2)cn1 (centres unmarked) [Example 344, 1-(3-fluoro-4-{4-[2-(6-methylpyridin-3-yl)acetamido]-1H-1,2,3-triazol-1-yl}butyl)-N-(pyridin-2-ylmethyl)-1H-1,2,3-triazole-4-carboxamide]",> 5000,100 to 500,–
"O=C(NCc1cccc(C2CC2)c1)c1cn(CCCCn2cc(C(=O)NCc3cc(C4CC4)ccn3)nn2)nn1 [Example 128, N-[(3-cyclopropylphenyl)methyl]-1-[4-(4-{[(4-cyclopropylpyridin-2-yl)methyl]carbamoyl}-1H-1,2,3-triazol-1-yl)butyl]-1H-1,2,3-triazole-4-carboxamide]",< 100,< 100,–
"Cc1ccc(CNC(=O)c2cn(CCCCn3cc(NC(=O)Cc4ccccn4)nn3)nn2)cn1 [Example 314, N-[(6-methylpyridin-3-yl)methyl]-1-(4-{4-[2-(pyridin-2-yl)acetamido]-1H-1,2,3-triazol-1-yl}butyl)-1H-1,2,3-triazole-4-carboxamide]",500 to 5000,100 to 500,–
"CNC(=O)c1cn(CC(F)CCc2nnc(C(=O)NCc3cc(C(F)(F)F)ccn3)s2)nn1 (racemic) [Example 508, 5-(3-fluoro-4-(4-(methylcarbamoyl)-1H-1,2,3-triazol-1-yl)butyl)-N-((4-(trifluoromethyl)pyridin-2-yl)methyl)-1,3,4-thiadiazole-2-carboxamide]",–,100 to 500,100 to 500
"O=C(NCc1cc(OC(F)(F)F)ccc1F)c1cn(CCC(F)Cn2cc(C(=O)NCc3cccc(C(F)(F)F)n3)nn2)nn1 (centres unmarked) [Example 425, 1-{2-fluoro-4-[4-({[2-fluoro-5-(trifluoromethoxy)phenyl]methyl}carbamoyl)-1H-1,2,3-triazol-1-yl]butyl}-N-{[6-(trifluoromethyl)pyridin-2-yl]methyl}-1H-1,2,3-triazole-4-carboxamide]",< 100,< 100,–
"O=C(NCc1cc(OC(F)(F)F)ccc1F)c1cn(CCC(F)Cn2cc(C(=O)NCc3ncccc3F)nn2)nn1 (centres unmarked) [Example 427, 1-{2-fluoro-4-[4-({[2-fluoro-5-(trifluoromethoxy)phenyl]methyl}carbamoyl)-1H-1,2,3-triazol-1-yl]butyl}-N-[(3-fluoropyridin-2-yl)methyl]-1H-1,2,3-triazole-4-carboxamide]",< 100,< 100,–
"CNC(=O)c1cn(CC(F)CCc2ccc(NC(=O)Cc3cc(OC4CCC4)ccn3)nn2)nn1 (centres unmarked) [Example 251, 1-(4-(6-(2-(4-cyclobutoxypyridin-2-yl)acetamido)pyridazin-3-yl)-2-fluorobutyl)-N-methyl-1H-1,2,3-triazole-4-carboxamide 2,2,2-trifluoroacetate]",< 100,< 100,–
"O=C(CC1CCCCC1)Nc1cn(CCCCn2cc(C(=O)NCc3cccnc3)nn2)nn1 [Example 310, 1-{4-[4-(2-cyclohexylacetamido)-1H-1,2,3-triazol-1-yl]butyl}-N-(pyridin-3-ylmethyl)-1H-1,2,3-triazole-4-carboxamide]",100 to 500,< 100,–
"O=C(Cc1cc(OC(F)(F)F)ccc1F)Nc1cn(CC(F)CCn2cc(C(=O)NCc3cc(C(F)(F)F)ccn3)nn2)nn1 (centres unmarked) [Example 395, 1-[3-fluoro-4-(4-{2-[2-fluoro-5-(trifluoromethoxy)phenyl]acetamido}-1H-1,2,3-triazol-1-yl)butyl]-N-{[4-(trifluoromethyl)pyridin-2-yl]methyl}-1H-1,2,3-triazole-4-carboxamide]",< 100,< 100,–
"O=C(NCc1cccc(OC(F)(F)F)c1)c1cn(CC(F)CCc2nnc(NC(=O)C3CC3)s2)nn1 (centres unmarked) [Example 568, 1-(4-(5-(cyclopropanecarboxamido)-1,3,4-thiadiazol-2-yl)-2-fluorobutyl)-N-(3-(trifluoromethoxy)benzyl)-1H-1,2,3-triazole-4-carboxamide]",100 to 500,< 100,–
"O=C(Cc1cc(OC(F)(F)F)ccc1F)Nc1cn(CC(F)CCn2cc(C(=O)NCc3ccc(C(F)(F)F)nc3)nn2)nn1 (centres unmarked) [Example 412, 1-[3-fluoro-4-(4-{2-[2-fluoro-5-(trifluoromethoxy)phenyl]acetamido}-1H-1,2,3-triazol-1-yl)butyl]-N-{[6-(trifluoromethyl)pyridin-3-yl]methyl}-1H-1,2,3-triazole-4-carboxamide]",< 100,< 100,–
"O=C(Cc1cc(OC(F)(F)F)ccc1F)Nc1cn(CCC(F)Cn2cc(C(=O)NCc3cc(C(F)(F)F)ccn3)nn2)nn1 (centres unmarked) [Example 418, 1-[2-fluoro-4-(4-{2-[2-fluoro-5-(trifluoromethoxy)phenyl]acetamido}-1H-1,2,3-triazol-1-yl)butyl]-N-{[4-(trifluoromethyl)pyridin-2-yl]methyl}-1H-1,2,3-triazole-4-carboxamide]",< 100,< 100,–
"CNC(=O)c1cn(CCCCc2ccc(NC(=O)Cc3cccc(Cl)c3F)nn2)nn1 [Example 180, 1-(4-{6-[2-(3-chloro-2-fluorophenyl)acetamido]pyridazin-3-yl}butyl)-N-methyl-1H-1,2,3-triazole-4-carboxamide]",100 to 500,< 100,–
"O=C(NCc1cc(OC(F)(F)F)ccc1F)c1cn(CC(F)CCc2nnc(C(=O)NCc3ccc(C(F)(F)F)cn3)s2)nn1 (centres unmarked) [Example 465, 5-{3-fluoro-4-[4-({[2-fluoro-5-(trifluoromethoxy)phenyl]methyl}carbamoyl)-1H-1,2,3-triazol-1-yl]butyl}-N-{[5-(trifluoromethyl)pyridin-2-yl]methyl}-1,3,4-thiadiazole-2-carboxamide]",< 100,< 100,–
"O=C(NCc1cccc(OC(F)(F)F)c1)c1cn(CC(F)CCc2nnc(C(=O)NCc3cc(C(F)(F)F)ccn3)s2)nn1 (centres unmarked) [Example 463, 5-{3-fluoro-4-[4-({[3-(trifluoromethoxy)phenyl]methyl}carbamoyl)-1H-1,2,3-triazol-1-yl]butyl}-N-{[4-(trifluoromethyl)pyridin-2-yl]methyl}-1,3,4-thiadiazole-2-carboxamide]",< 100,< 100,–
"COCCNC(=O)c1nnc(CCC(F)Cn2cc(C(=O)NCc3cccc(OC(F)(F)F)c3)nn2)s1 (centres unmarked) [Example 523, 5-{3-fluoro-4-[4-({[3-(trifluoromethoxy)phenyl]methyl}carbamoyl)-1H-1,2,3-triazol-1-yl]butyl}-N-(2-methoxyethyl)-1,3,4-thiadiazole-2-carboxamide]",500 to 5000,100 to 500,–
"O=C(NCc1cccc(OC(F)(F)F)c1)c1cn(CC(F)CCc2nnc(C(=O)NCc3ccc(C(F)(F)F)cn3)s2)nn1 (centres unmarked) [Example 464, 5-{3-fluoro-4-[4-({[3-(trifluoromethoxy)phenyl]methyl}carbamoyl)-1H-1,2,3-triazol-1-yl]butyl}-N-{[5-(trifluoromethyl)pyridin-2-yl]methyl}-1,3,4-thiadiazole-2-carboxamide]",< 100,< 100,–
